Values of other authors, collected in patent publication US20240000780A1, “PED5 INHIBITOR SEMI-SOLID COMPOSITIONS AND METHODS OF MAKING AND USING THEREOF” (Seattle Gummy Company, priority 2021, published 2024).

Details: ranking among alpha, beta, gamma cyclodextrins

Row | stability of complex formed with tadalafil | SMILES
1 | least stable | OC[C@H]1O[C@@H]2O[C@H]3[C@H](O)[C@@H](O)[C@@H](O[C@H]4[C@H](O)[C@@H](O)[C@@H](O[C@H]5[C@H](O)[C@@H](O)[C@@H](O[C@H]6[C@H](O)[C@@H](O)[C@@H](O[C@H]7[C@H](O)[C@@H](O)[C@@H](O[C@H]1[C@H](O)[C@H]2O)O[C@@H]7CO)O[C@@H]6CO)O[C@@H]5CO)O[C@@H]4CO)O[C@@H]3CO [alpha, alpha-cyclodextrin]
2 | most stable complex | OC[C@H]1O[C@@H]2O[C@H]3[C@H](O)[C@@H](O)[C@@H](O[C@H]4[C@H](O)[C@@H](O)[C@@H](O[C@H]5[C@H](O)[C@@H](O)[C@@H](O[C@H]6[C@H](O)[C@@H](O)[C@@H](O[C@H]7[C@H](O)[C@@H](O)[C@@H](O[C@H]8[C@H](O)[C@@H](O)[C@@H](O[C@H]9[C@H](O)[C@@H](O)[C@@H](O[C@H]1[C@H](O)[C@H]2O)O[C@@H]9CO)O[C@@H]8CO)O[C@@H]7CO)O[C@@H]6CO)O[C@@H]5CO)O[C@@H]4CO)O[C@@H]3CO [gamma, gamma-cyclodextrin]
